Experimental data from US12077503B2, “Substituted cyclic amides and their use as herbicides” (FMC CORPORATION, priority 2015, dated 2024).

How the values were obtained:
Assay in all cases: Test C preemergence
Type in all cases: in vivo
[1] = tested on: ryegrass, Italian (Italian ryegrass, Lolium multiflorum); details: for Plant response rating (scale of 0 to 100), Ryegrass, Italian: 0 is no effect, 100 is complete control
Summary of the method: (§1)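 Preemergence application to seeds in loam/sand soil, or foliar (postemergence) application to plants 2–18 cm tall in peat moss/vermiculite medium; surfactant-containing non-phytotoxic solvent vehicle; greenhouse. Visual injury vs controls at 13–15 d; 0 = no effect, 100 = complete control.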

[2] = tested on: barnyardgrass (Echinochloa crus-galli); details: for Plant response rating (scale of 0 to 100), Barnyardgrass: 0 is no effect, 100 is complete control
Summary of the method: as §1

[3] = tested on: Galium (catchweed bedstraw, Galium aparine); details: for Plant response rating (scale of 0 to 100), Galium: 0 is no effect, 100 is complete control
Summary of the method: as §1

[4] = tested on: blackgrass (Alopecurus myosuroides); details: for Plant response rating (scale of 0 to 100), Blackgrass: 0 is no effect, 100 is complete control
Summary of the method: as §1

[5] = tested on: nutsedge, yellow (yellow nutsedge, Cyperus esculentus); details: for Plant response rating (scale of 0 to 100), Nutsedge, Yellow: 0 is no effect, 100 is complete control
Summary of the method: as §1

[6] = tested on: velvetleaf (Abutilon theophrasti); details: for Plant response rating (scale of 0 to 100), Velvetleaf: 0 is no effect, 100 is complete control
Summary of the method: as §1

[7] = tested on: ragweed (common ragweed, Ambrosia elatior); details: for Plant response rating (scale of 0 to 100), Ragweed: 0 is no effect, 100 is complete control
Summary of the method: as §1

[8] = tested on: morningglory (Ipomoea coccinea); details: for Plant response rating (scale of 0 to 100), Morningglory: 0 is no effect, 100 is complete control
Summary of the method: as §1

[9] = tested on: pigweed (Amaranthus retroflexus); details: for Plant response rating (scale of 0 to 100), Pigweed: 0 is no effect, 100 is complete control
Summary of the method: as §1

soybean (Glycine max) = details: for Plant response rating (scale of 0 to 100), Soybean: 0 is no effect, 100 is complete control
Summary of the method: as §1

corn (Zea mays) = details: for Plant response rating (scale of 0 to 100), Corn: 0 is no effect, 100 is complete control
Summary of the method: as §1

[10] = tested on: crabgrass, large (large crabgrass, Digitaria sanguinalis); details: for Plant response rating (scale of 0 to 100), Crabgrass, Large: 0 is no effect, 100 is complete control
Summary of the method: as §1

[11] = tested on: waterhemp (common waterhemp, Amaranthus rudis); details: for Plant response rating (scale of 0 to 100), Waterhemp: 0 is no effect, 100 is complete control
Summary of the method: as §1

[12] = tested on: foxtail, giant (giant foxtail, Setaria faberii); details: for Plant response rating (scale of 0 to 100), Foxtail, Giant: 0 is no effect, 100 is complete control
Summary of the method: as §1

[13] = tested on: oilseed rape (Brassica napus); details: for Plant response rating (scale of 0 to 100), Oilseed Rape: 0 is no effect, 100 is complete control
Summary of the method: as §1

[14] = tested on: wheat (winter wheat, Triticum aestivum); details: for Plant response rating (scale of 0 to 100), Wheat: 0 is no effect, 100 is complete control
Summary of the method: as §1

[15] = 62 g ai/ha, scale 0 to 100, 0 no effect, 100 complete control

Compound: CN1CC(c2ccc(C(C)(F)F)cc2)C(C(=O)Nc2cccc(F)c2F)C1=O (stereo not shown) [Compound 690]
- Plant response rating (scale of 0 to 100), Ryegrass, Italian ([1]; 8 g ai/ha): 0
- Plant response rating (scale of 0 to 100), Ryegrass, Italian ([1]; 16 g ai/ha): 10
- Plant response rating (scale of 0 to 100), Ryegrass, Italian ([1]; 31 g ai/ha): 40
- Plant response rating, Ryegrass, Italian [1, 15]: 45
- Plant response rating (scale of 0 to 100), Barnyardgrass ([2]; 8 g ai/ha): 85
- Plant response rating (scale of 0 to 100), Barnyardgrass ([2]; 16 g ai/ha): 95
- Plant response rating (scale of 0 to 100), Barnyardgrass ([2]; 31 g ai/ha): 95
- Plant response rating, Barnyardgrass [2, 15]: 98
- Plant response rating (scale of 0 to 100), Galium ([3]; 8 g ai/ha): 100
- Plant response rating (scale of 0 to 100), Galium ([3]; 16 g ai/ha): 90
- Plant response rating (scale of 0 to 100), Galium ([3]; 31 g ai/ha): 95
- Plant response rating, Galium [3, 15]: 98
- Plant response rating (scale of 0 to 100), Blackgrass ([4]; 8 g ai/ha): 0
- Plant response rating (scale of 0 to 100), Blackgrass ([4]; 16 g ai/ha): 0
- Plant response rating (scale of 0 to 100), Blackgrass ([4]; 31 g ai/ha): 50
- Plant response rating, Blackgrass [4, 15]: 55
- Plant response rating (scale of 0 to 100), Nutsedge, Yellow ([5]; 8 g ai/ha): 0
- Plant response rating (scale of 0 to 100), Nutsedge, Yellow ([5]; 16 g ai/ha): 0
- Plant response rating (scale of 0 to 100), Nutsedge, Yellow ([5]; 31 g ai/ha): 0
- Plant response rating, Nutsedge, Yellow [5, 15]: 50
- Plant response rating (scale of 0 to 100), Velvetleaf ([6]; 8 g ai/ha): 0
- Plant response rating (scale of 0 to 100), Velvetleaf ([6]; 16 g ai/ha): 0
- Plant response rating (scale of 0 to 100), Velvetleaf ([6]; 31 g ai/ha): 20
- Plant response rating, Velvetleaf [6, 15]: 50
- Plant response rating (scale of 0 to 100), Ragweed ([7]; 8 g ai/ha): 0
- Plant response rating (scale of 0 to 100), Ragweed ([7]; 16 g ai/ha): 10
- Plant response rating (scale of 0 to 100), Ragweed ([7]; 31 g ai/ha): 25
- Plant response rating, Ragweed [7, 15]: 80
- Plant response rating (scale of 0 to 100), Morningglory ([8]; 8 g ai/ha): 0
- Plant response rating (scale of 0 to 100), Morningglory ([8]; 16 g ai/ha): 0
- Plant response rating (scale of 0 to 100), Morningglory ([8]; 31 g ai/ha): 0
- Plant response rating, Morningglory [8, 15]: 0
- Plant response rating (scale of 0 to 100), Pigweed ([9]; 8 g ai/ha): 50
- Plant response rating (scale of 0 to 100), Pigweed ([9]; 16 g ai/ha): 60
- Plant response rating (scale of 0 to 100), Pigweed ([9]; 31 g ai/ha): 75
- Plant response rating, Pigweed [9, 15]: 90
- Plant response rating (scale of 0 to 100), Soybean (soybean (Glycine max); 8 g ai/ha): 0
- Plant response rating (scale of 0 to 100), Soybean (soybean (Glycine max); 16 g ai/ha): 0
- Plant response rating (scale of 0 to 100), Soybean (soybean (Glycine max); 31 g ai/ha): 0
- Plant response rating, Soybean (soybean (Glycine max); [15]): 0
- Plant response rating (scale of 0 to 100), Corn (corn (Zea mays); 8 g ai/ha): 20
- Plant response rating (scale of 0 to 100), Corn (corn (Zea mays); 16 g ai/ha): 10
- Plant response rating (scale of 0 to 100), Corn (corn (Zea mays); 31 g ai/ha): 20
- Plant response rating, Corn (corn (Zea mays); [15]): 70
- Plant response rating (scale of 0 to 100), Crabgrass, Large ([10]; 8 g ai/ha): 95
- Plant response rating (scale of 0 to 100), Crabgrass, Large ([10]; 16 g ai/ha): 98
- Plant response rating (scale of 0 to 100), Crabgrass, Large ([10]; 31 g ai/ha): 98
- Plant response rating, Crabgrass, Large [10, 15]: 100
- Plant response rating (scale of 0 to 100), Waterhemp ([11]; 8 g ai/ha): 65
- Plant response rating (scale of 0 to 100), Waterhemp ([11]; 16 g ai/ha): 80
- Plant response rating (scale of 0 to 100), Waterhemp ([11]; 31 g ai/ha): 90
- Plant response rating, Waterhemp [11, 15]: 95
- Plant response rating (scale of 0 to 100), Foxtail, Giant ([12]; 8 g ai/ha): 90
- Plant response rating (scale of 0 to 100), Foxtail, Giant ([12]; 16 g ai/ha): 95
- Plant response rating (scale of 0 to 100), Foxtail, Giant ([12]; 31 g ai/ha): 95
- Plant response rating, Foxtail, Giant [12, 15]: 98
- Plant response rating (scale of 0 to 100), Oilseed Rape ([13]; 8 g ai/ha): 0
- Plant response rating (scale of 0 to 100), Oilseed Rape ([13]; 16 g ai/ha): 50
- Plant response rating (scale of 0 to 100), Oilseed Rape ([13]; 31 g ai/ha): 75
- Plant response rating, Oilseed Rape [13, 15]: 80
- Plant response rating (scale of 0 to 100), Wheat ([14]; 8 g ai/ha): 0
- Plant response rating (scale of 0 to 100), Wheat ([14]; 16 g ai/ha): 5
- Plant response rating (scale of 0 to 100), Wheat ([14]; 31 g ai/ha): 40
- Plant response rating, Wheat [14, 15]: 45
